Source: US20240336556A1, “R-KETAMINE SALTS AND METHODS OF USE THEREOF” (Perception Neuroscience, Inc., priority 2021, published 2024)
≈ marks a conversion by molar mass, not a printed value. Like-named read-outs stand apart in the source and are kept apart here.

Legend:
[1] = Dynamic vapor sorption (DVS) and classification of hygroscopicity; type: physicochemical; details: for reversibility of water sorption: under the test conditions; for solid form of the sample after DVS: PXRD or FT-Raman on solid recovered after the DVS test
Method: DVS measurements were performed with an SPS11-100n “Sorptions Prüfsystem” from ProUmid (formerly “Projekt Messtechnik”), August-Nagel-Str. 23, 89079 Ulm (Germany). About 5-20 mg of sample were put into an aluminum sample pan. Humidity change rates of […] were used. The applied measurement program is described as follows:
The sample was placed on an aluminum or platinum holder on top of a microbalance and allowed to equilibrate at 50% RH before starting the pre-defined humidity programs: • (1) 2 h at 50% RH • (2) 50→0% RH (5%/h); 5 h at 0% RH • (3) 0→95% RH (5%/h); 5 h at 95% RH • (4) 95→0% RH (5%/h); 5 h at 0% RH • (5) 0→95% RH (5%/h); 5 h at 95% RH • (6) 95→50% RH (5%/h); 2 h at 50% RH
The hygroscopicity was classified based on the mass gain at 85% RH relative to the initial mass as follows: deliquescent (sufficient water adsorbed to form a liquid), very hygroscopic (mass increase of ≥15%), hygroscopic (mass increase <15% but ≥2%), slightly hygroscopic (mass increase <2% but ≥0.2%), or non-hygroscopic (mass increase <0.2%).

[2] = Storage in a closed vial at ambient conditions, reanalysis by PXRD; type: physicochemical
Method: Stoe Stadi P equipped with a Mythen1K Detector; Cu-Kα1 radiation; standard measurement conditions: transmission; 40 kV and 40 mA tube power; curved Ge monochromator; 0.02°2θ step size, 48 s step time, 1.5-50.5°2θ scanning range; detector mode: step scan; 1 °2θ detector step; standard sample preparation: 10 to 20 mg sample was placed between two acetate foils; sample holder: Stoe transmission sample holder; the sample was rotated during the measurement. All sample preparation and measurement was done in an ambient air atmosphere.

[3] = water, at 23° C.
[4] = Approximate solubility determination (small aliquots of solvent added to ~10 mg of solid, ambient conditions); type: physicochemical; details: thermodynamic from solid, approximation
Method: Approximate solubilities were determined for the R-ketamine free base. […] These values are only approximations.

[5] = Approximate solubility in 20% (w/w) aqueous (2-Hydroxypropyl)-Beta-cyclodextrin solution and in 20% (w/w) cyclodextrin in buffer pH 7, with pH of the solutions; details: for Approximate Solubility: ambient conditions, visual estimate
Method: These values were determined by adding small aliquots of solvent or solvent mixture to ˜10 mg of solid and shaking/sonicating for a short period of time at ambient conditions. The solubilities were estimated by visual observations. These values are only approximations. Table 20 summarized the obtained solubility values, and the pH of the resulting solutions.

[6] = Precise solubility tests of R-ketamine fumarate salt Form A in aqueous media at adjusted pH (HPLC); details: for solubility: aqueous, equilibrated one day, HPLC
[7] = HPLC precise solubility determination of R-ketamine salts in water at 25° C., with pH of the saturated solution; details: for Initial pH / pH after 24 hours: saturated solution in water, pH determined at 24° C.; for solubility / solubility in water: 25° C.; for solubility: equilibrated one day, HPLC of the saturated solution, values marked * may be underestimated; for solubility in water: one day equilibration, HPLC
Method: 50 mg of R-ketamine saccharin salt was suspended in 0.5 mL of water, and the suspension was equilibrated (700 rpm) at 25° C. for one day. 10 to 15 mg of R-ketamine fumarate salt and R-ketamine oxalate salt were also equilibrated in 0.5 mL of water at 25° C. for one day.

[8] = DVS, above 70% relative humidity
[9] = obtained solution in 20% (w/w) aqueous cyclodextrin, measured at 24° C.
[10] = obtained solution in 20% (w/w) cyclodextrin in buffer pH 7, measured at 24° C.

## CN[C@@]1(c2ccccc2Cl)CCCCC1=O.O=C(O)C(O)C(O)C(=O)O [R-ketamine D-tartrate salt Form A]
[1]; [8]
  additional water uptake: about 3%
[1]; DVS
  reversibility of water sorption: irreversible
[2]; 13 months, ambient conditions
  solid form after storage (PXRD): corresponding to R-ketamine D-tartrate salt Form A

## CN[C@@]1(c2ccccc2Cl)CCCCC1=O.O=C(O)C(O)C(O)C(=O)O [R-ketamine D-tartrate salt Form B]
[1]; [8]
  water content reached: about 8.5%
[1]; DVS
  reversibility of water sorption: irreversible
[2]; 12 months, ambient conditions
  solid form after storage (PXRD): corresponding to R-ketamine D-tartrate salt Form B

## CN[C@@]1(c2ccccc2Cl)CCCCC1=O.O=C(O)C(O)C(O)C(=O)O [R-ketamine D-tartrate salt Form C]
[1]; [8]
  water content reached: about 8.3%
[1]; DVS
  reversibility of water sorption: irreversible
[3]; after 24 hours of stirring
  pH of the suspension: 3.42
[3]; after one hour
  pH of the suspension: 3.48

## CN[C@@]1(c2ccccc2Cl)CCCCC1=O.O=C(O)C(O)C(O)C(=O)O [R-ketamine D-tartrate salt Form D]
[1]; DVS, at high relative humidity
  additional water absorbed: About 0.4%

## CN[C@@]1(c2ccccc2Cl)CCCCC1=O [R-ketamine free base, (2R)-2-(2-chlorophenyl)-2-(methylamino)cyclohexan-1-one]
[4]; aqueous with cosolvent or surfactant or cyclodextrin, 20% (2-hydroxypropyl)-beta-cyclodextrin in water
  solubility: 1.4 to 1.7 mg/mL (≈ 5.89 to 7.15 mM)
[4]; organic solvent or mixture, 1-propanol
  solubility: 60 to 79 mg/mL (≈ 252 to 332 mM)
[4]; organic solvent or mixture, 2-propanol
  solubility: 37 to 44 mg/mL (≈ 156 to 185 mM)
[4]; organic solvent or mixture, Acetone
  solubility: 111 to 222 mg/mL (≈ 467 to 934 mM)
[4]; organic solvent or mixture, Acetonitrile
  solubility: 89 to 133 mg/mL (≈ 374 to 559 mM)
[4]; organic solvent or mixture, Ethanol
  solubility: 62 to 83 mg/mL (≈ 261 to 349 mM)
[4]; organic solvent or mixture, Ethyl acetate
  solubility: 115 to 230 mg/mL (≈ 484 to 967 mM)
[4]; organic solvent or mixture, Heptane
  solubility: 5 to 9 mg/mL (≈ 21 to 37.9 mM)
[4]; organic solvent or mixture, Methanol
  solubility: 120 to 240 mg/mL (≈ 505 to 1010 mM)
[4]; organic solvent or mixture, THF
  solubility: > 288 mg/mL
[4]; Water
  solubility: < 1 mg/mL
[5]; 20% (w/w) (2-hydroxypropyl)-beta-cyclodextrin in buffer pH 7, pH 7, aqueous with cosolvent or surfactant or cyclodextrin, thermodynamic from solid
  solubility: 2 to 2.5 mg/mL (≈ 8.41 to 10.5 mM)
[5]; aqueous with cosolvent or surfactant or cyclodextrin, thermodynamic from solid
  solubility: 1.5 to 1.7 mg/mL (≈ 6.31 to 7.15 mM)
[5]; [9]
  pH: 8.5
[5]; [10]
  pH: 7.1

## CN[C@@]1(c2ccccc2Cl)CCCCC1=O.CN[C@@]1(c2ccccc2Cl)CCCCC1=O.O=C(O)/C=C/C(=O)O [R-ketamine fumarate salt Form A]
[6]; pH 5.23, r.t.
  solubility: 304 mg/mL
[6]; pH 6.14, r.t.
  solubility: 15.1 mg/mL
[6]; pH 7.21, r.t.
  solubility: 1.76 mg/mL
[6]; pure water, from approximate solubility tests
  pH on dissolution in pure water: about 5.7
[6]; water adjusted to pH 5, 6, 7, one day at 25° C.
  dependence of aqueous solubility on pH: solubility rapidly deceases by increasing pH
[1]; DVS
  reversibility of water sorption: lost all its water when the humidity is scanned back to 0% r.h.
[1]
  solid form of the sample after DVS: no change in the crystalline form was observed
[7]; after 3 h
  Initial pH: 4.1 (after 3 h)
[7]
  pH after 24 hours: 4.1
[7]; water
  solubility: 17.7* mg/mL
  solubility in water: higher than the solubility of the R-ketamine saccharin salt

## CN[C@@]1(c2ccccc2Cl)CCCCC1=O.O=C(O)/C=C/C(=O)O [R-ketamine fumarate salt Form B]
[2]; 11 months, ambient condition
  solid form after storage (PXRD): a mixture of the R-ketamine fumarate salt Form A and B (about 1:1)

## CNC1(c2ccccc2Cl)CCCCC1=O.Cl (centres unmarked) [R-ketamine hydrochloride salt, reference compound]
[5]; aqueous 20% (2-hydroxypropyl)-beta-cyclodextrin solution
  solubility: *The solubility of the HCl R-ketamine salt was over 100 mg/mL in aqueous 20% (2-hydroxypropyl)-beta-cyclodextrin solution.

## CN[C@@]1(c2ccccc2Cl)CCCCC1=O.O=C(O)C(=O)O [R-ketamine oxalate salt]
[1]; DVS
  hygroscopicity class: very hygroscopic (very hygroscopic (mass increase of ≥15%))
[1]
  solid form of the sample after DVS: dramatically loss of crystallinity was observed
[7]; after 3 h
  Initial pH: 5.6 (after 3 h)
[7]
  pH after 24 hours: 5.7
[7]; water
  solubility: 19.2* mg/mL
  solubility in water: higher than the solubility of the R-ketamine saccharin salt
[7]; water, after one day stirring, pH measured at 24° C.
  pH of the saturated solution: 5.7

## CN[C@@]1(c2ccccc2Cl)CCCCC1=O.O=C1NS(=O)(=O)c2ccccc21 [R-ketamine saccharin salt]
[1]; DVS
  hygroscopicity class: non-hygroscopic (non-hygroscopic (mass increase <0.2%))
[1]
  solid form of the sample after DVS: no change in the solid form was observed
[7]; after 1 h
  Initial pH: 4.2 (after 1 h)
[7]
  pH after 24 hours: 4.0
[7]; water
  solubility: 6.64 mg/mL
  solubility in water: 6.6 mg/mL
[5]; 20% (w/w) aqueous cyclodextrin
  Approximate Solubility: 28~37 mg/mL
[5]; 20% (w/w) cyclodextrin in buffer pH 7 solution
  Approximate Solubility: 26~35 mg/mL
[5]; [9]
  pH: 5
[5]; [10]
  pH: 6.3
